{"source": "ChEMBL document CHEMBL1955725", "about": "“Structure-guided lead optimization of triazolopyrimidine-ring substituents identifies potent Plasmodium falciparum dihydroorotate dehydrogenase inhibitors with clinical candidate potential” (J Med Chem, 2011)", "key": {"HepG2": {"tested_on": "HepG2", "experiment": "Cytotoxicity against human HepG2 cells", "format": "cell-based"}, "[1]": {"experiment": "Terminal elimination half life in Sprague-Dawley rat at 4.5 mg/kg, iv", "format": "ADME, organism-based", "design": "dose 4.5 mg/kg, route intravenous", "conditions": "in vivo, read-out: beta t1/2 (converted)"}, "Mus musculus [2]": {"tested_on": "Mus musculus", "experiment": "AUC (0 to 10 hrs) in human RBC engrafted NOD-SCID IL-2Rgamma-null mouse at 5.7 mg/kg, po", "format": "ADME, organism-based, Plasma", "design": "time < 10 hr, dose 5.7 mg/kg, route oral", "conditions": "in vivo"}, "Plasma": {"tested_on": "Plasma", "experiment": "Plasma protein binding in human by ultracentrifugation method", "format": "ADME, cell-free"}, "Mus musculus [3]": {"tested_on": "Mus musculus", "experiment": "AUC (0 to 48 hrs) in Swiss outbred mouse plasma at 50 mg/kg, po", "format": "ADME, organism-based", "design": "time < 48 hr, dose 50 mg/kg, route oral", "conditions": "in vivo"}, "[4]": {"experiment": "Cmax in Swiss outbred mouse at 10 mg/kg, po", "format": "ADME, organism-based", "design": "dose 10 mg/kg, route oral", "conditions": "in vivo"}, "[5]": {"experiment": "Oral bioavailability in Sprague-Dawley rat at 2 mg/kg", "format": "ADME, organism-based", "conditions": "in vivo"}, "[6]": {"biological_target": "T1, Dihydroorotate dehydrogenase (Plasmodium falciparum, UniProt Q54A96)", "T1 sequence (Q54A96 whole entry)": "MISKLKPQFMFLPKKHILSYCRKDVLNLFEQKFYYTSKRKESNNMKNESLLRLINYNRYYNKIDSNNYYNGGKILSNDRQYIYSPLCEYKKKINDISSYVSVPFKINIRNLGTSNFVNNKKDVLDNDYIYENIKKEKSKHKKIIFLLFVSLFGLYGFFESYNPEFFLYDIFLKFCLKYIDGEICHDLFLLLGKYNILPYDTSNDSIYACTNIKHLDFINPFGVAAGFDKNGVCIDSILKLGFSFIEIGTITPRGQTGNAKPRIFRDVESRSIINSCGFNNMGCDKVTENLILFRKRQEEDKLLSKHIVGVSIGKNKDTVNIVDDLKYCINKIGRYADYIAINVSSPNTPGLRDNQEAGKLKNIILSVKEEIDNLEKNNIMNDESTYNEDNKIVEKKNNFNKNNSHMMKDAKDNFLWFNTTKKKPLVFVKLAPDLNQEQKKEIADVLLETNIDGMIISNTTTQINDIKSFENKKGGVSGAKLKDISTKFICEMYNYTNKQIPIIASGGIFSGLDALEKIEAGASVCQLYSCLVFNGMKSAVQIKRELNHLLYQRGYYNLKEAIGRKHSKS", "description": "Inhibition of Plasmodium falciparum C-terminal hexa-His tagged DHODH expressed in Escherichia coli by DCIP reduction assay"}}, "data": [{"smiles": "Cc1cc(Nc2ccc(C(F)(F)F)cc2)n2nc(C(C)(F)F)nc2n1", "values": [{"measurement": "EC50", "setting": "HepG2", "value": "> 50", "unit": "µM"}, {"measurement": "half-life", "setting": "[1]", "value": 228, "unit": "min"}, {"measurement": "AUC", "setting": "Mus musculus [2]", "value": 2521, "unit": "µM·min"}, {"measurement": "PPB", "setting": "Plasma", "value": 98.8, "unit": "%"}, {"measurement": "AUC", "setting": "Mus musculus [3]", "value": 14815, "unit": "µM·min"}, {"measurement": "Cmax", "setting": "[4]", "value": 9.86, "unit": "µM"}, {"measurement": "bioavailability", "setting": "[5]", "value": 97, "unit": "%"}, {"measurement": "IC50", "setting": "[6]", "value": 38, "unit": "nM"}]}]}
